Experimental data reported in patent EP0297547A2, “Use of hydrolyzable tannins for treatement and prophylaxis of AIDS” (LEAD CHEMICAL COMPANY LTD., priority 1987, dated 1989).

Assays:
Hela-S3 cells = assay: Cytotoxicity to Hela-S3 cells (colony formation); type: cell-based; conditions: sensitized 2 hours at 37°C, colonies counted in 72 hours
Method: Hela-S3 cells (1 x 10⁴ cells/ml) were applied to an Eagle's MEM medium or a 10 % fresh calf serum-containing Eagle's MEM medium, and Agrimoniin was added thereto to sensitize the cells at 37°C for 2 hours. The concentration of the Agrimoniin added was variously varied. After sensitization, the cells were washed with Hanks' solution and then incubated in a CO₂ incubator containing a 10 % fresh calf serum-containing Eagle's MEM medium at 37°C for 72 hours. […] In addition, IC₅₀ of Agrimoniin to Hela-S3 cells in the 10 % fresh calf serum-containing Eagle's MEM medium was improved to be 57.4 µg/ml. From these experiments, it is noted that ellagitannins have a relatively strong direct cytotoxic action but the cytotoxic action may be reduced by addition of proteins such as serum to the culture medium.

ddy mice = assay: LD50 by probit method; type: in vivo
Description: 50 % lethal dose (LD₅₀) of Coriariin A to ddy mice was obtained by probit method.

SMILES | 50 % cell-inhibiting concentration (IC₅₀) (Hela-S3 cells; 10 % fresh calf serum-containing Eagle's MEM medium) | 50 % cell-inhibiting concentration (IC₅₀) (Hela-S3 cells; Eagle's MEM medium) | LD₅₀ (ddy mice; Intraabdominal, Female) | LD₅₀ (ddy mice; Intraabdominal, Male) | LD₅₀ (ddy mice; Intravenous, Female) | LD₅₀ (ddy mice; Intravenous, Male) | LD₅₀ (ddy mice; Peroral, Female) | LD₅₀ (ddy mice; Peroral, Male)
O=C(O[C@H]1O[C@@H]2COC(=O)c3cc(O)c(O)c(O)c3-c3c(cc(O)c(O)c3O)C(=O)O[C@H]2[C@@H]2OC(=O)c3cc(O)c(O)c(O)c3-c3c(cc(O)c(O)c3O)C(=O)O[C@@H]12)c1cc(O)c(O)c(Oc2c(C(=O)O[C@H]3O[C@@H]4COC(=O)c5cc(O)c(O)c(O)c5-c5c(cc(O)c(O)c5O)C(=O)O[C@H]4[C@@H]4OC(=O)c5cc(O)c(O)c(O)c5-c5c(cc(O)c(O)c5O)C(=O)O[C@@H]34)cc(O)c(O)c2O)c1 [Agrimoniin] | 57.4 µg/mL | 7.3 µg/mL | – | – | – | – | – | –
O=C(O[C@@H]1O[C@@H]2COC(=O)c3cc(O)c(O)c(O)c3-c3c(cc(O)c(O)c3O)C(=O)O[C@H]2[C@H](OC(=O)c2cc(O)c(O)c(O)c2)[C@H]1OC(=O)c1cc(O)c(O)c(O)c1)c1cc(O)c(O)c(Oc2c(C(=O)O[C@H]3O[C@@H]4COC(=O)c5cc(O)c(O)c(O)c5-c5c(cc(O)c(O)c5O)C(=O)O[C@H]4[C@H](OC(=O)c4cc(O)c(O)c(O)c4)[C@H]3OC(=O)c3cc(O)c(O)c(O)c3)cc(O)c(O)c2O)c1 [Coriariin A] | – | – | 119.1 mg/kg | 120.2 mg/kg | 36.8 mg/kg | 37.5 mg/kg | 1000 or more mg/kg | 1000 or more mg/kg
